Data reported in paper PMC4494349, “Epitope Prediction Assays Combined with Validation Assays Strongly Narrows down Putative Cytotoxic T Lymphocyte Epitopes” (Vaccines, 2015).

What was measured:
H-2D^b = target: T1, H-2D^b (Mus musculus, UniProt P01899); test: MHC class I stabilization assay on RMA-S cells, H-2D^b surface expression; assay type: cell-based; conditions: for H-2D^b binder class (weak, intermediate, strong) by stabilization of MHC class I on RMA-S cells: 10 μM (Figure 1a), in words; for MHC I Stabilization Assay, fluorescence index class, H-2D^b: RMA-S cells 26 °C 4 h then 37 °C 1 h, flow cytometry
T1 sequence (P01899 25-362): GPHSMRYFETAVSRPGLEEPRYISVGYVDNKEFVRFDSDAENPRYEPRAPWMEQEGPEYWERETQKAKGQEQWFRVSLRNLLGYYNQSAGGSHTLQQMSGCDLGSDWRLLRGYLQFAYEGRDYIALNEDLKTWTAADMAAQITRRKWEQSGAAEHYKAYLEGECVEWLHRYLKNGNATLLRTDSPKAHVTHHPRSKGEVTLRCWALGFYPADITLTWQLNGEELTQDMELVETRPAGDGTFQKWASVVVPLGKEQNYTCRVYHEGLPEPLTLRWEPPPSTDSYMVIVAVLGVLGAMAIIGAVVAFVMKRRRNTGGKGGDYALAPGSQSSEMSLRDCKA
T1 sequence (P01887 21-119 partner): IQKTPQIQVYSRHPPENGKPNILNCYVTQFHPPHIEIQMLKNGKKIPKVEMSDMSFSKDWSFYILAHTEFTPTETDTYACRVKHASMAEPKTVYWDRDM

H-2K^b = target: T2, H-2K^b (Mus musculus, UniProt P01901); test: MHC class I stabilization assay on RMA-S cells, H-2K^b surface expression; conditions: for MHC I Stabilization Assay, fluorescence index class, H-2K^b: RMA-S cells 26 °C 4 h then 37 °C 1 h, flow cytometry
T2 sequence (P01901 22-369): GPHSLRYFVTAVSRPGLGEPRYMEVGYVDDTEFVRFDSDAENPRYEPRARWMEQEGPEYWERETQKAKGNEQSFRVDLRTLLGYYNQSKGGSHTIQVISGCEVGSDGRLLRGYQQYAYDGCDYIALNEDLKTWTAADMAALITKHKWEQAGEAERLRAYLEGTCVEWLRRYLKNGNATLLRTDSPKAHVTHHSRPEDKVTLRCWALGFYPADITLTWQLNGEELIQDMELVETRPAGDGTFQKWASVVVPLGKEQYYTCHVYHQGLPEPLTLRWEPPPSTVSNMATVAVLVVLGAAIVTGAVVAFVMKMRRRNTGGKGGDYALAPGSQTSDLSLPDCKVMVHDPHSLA
T2 sequence (P01887 21-119 partner): T1 sequence (P01887 21-119 partner)
Experimental: RMA-S cells were maintained in IMDM (Life Technologies, Bleiswijk, The Netherlands) supplemented with 10% FBS and 100 U/mL penicillin and 100 μg/mL streptomycin (Life Technologies). RMA-S cells were cultured at 26 °C for 48 h to induce expression of MHC class I molecules. Cells were then incubated with various concentrations of synthetic peptides at 26 °C for 4 h, followed by a 1-h culture at 37 °C. […] The surface expression of MHC class I molecules were analyzed by FACSCalibur cytometer (BD Biosciences, Breda, The Netherlands) and data analyzed with FlowJo software (Treestar, Ashland, OR, USA). Fluorescence index was calculated by dividing the median fluorescence intensity (MFI) value of cells incubated with SLPs by the MFI value of cells incubated with equivalent concentration of DMSO.

[1] = synthetic long peptides, peptide concentration 10 μM, FI = MFI peptide / MFI DMSO

AETTVRLRAYMNTPGLPV [NS3_507-524]
H-2D^b binder class (weak, intermediate, strong) by stabilization of MHC class I on RMA-S cells (H-2D^b; synthetic long peptides): strong (>1.5: strong binders (+++)) | MHC I Stabilization Assay, fluorescence index class, H-2D^b (H-2D^b; [1]): +++ (>1.5 +++)

ALGINAVAYYRGLDVSVI [NS3_383-400]
H-2D^b binder class (weak, intermediate, strong) by stabilization of MHC class I on RMA-S cells (H-2D^b; synthetic long peptides): intermediate (0.5–1.5: intermediate binders (++)) | MHC I Stabilization Assay, fluorescence index class, H-2D^b (H-2D^b; [1]): ++ (0.5–1.5 ++)

ATPPGSVTVSHPNIEEVA [NS3_323-340]
H-2D^b binder class (weak, intermediate, strong) by stabilization of MHC class I on RMA-S cells (H-2D^b; synthetic long peptides): weak (0.2–0.5: weak binders (+)) | MHC I Stabilization Assay, fluorescence index class, H-2D^b (H-2D^b; [1]): + (Fluorescence index of H-2D^b: 0.2–0.5 +)

IQMYTNVDQDLVGWPA [NS3_72-87]
H-2D^b binder class (weak, intermediate, strong) by stabilization of MHC class I on RMA-S cells (H-2D^b; synthetic long peptides): weak (0.2–0.5: weak binders (+)) | MHC I Stabilization Assay, fluorescence index class, H-2D^b (H-2D^b; [1]): + (Fluorescence index of H-2D^b: 0.2–0.5 +)

LSQTKQSGENFPYLVAY [NS3_547-563]
H-2D^b binder class (weak, intermediate, strong) by stabilization of MHC class I on RMA-S cells (H-2D^b; synthetic long peptides): intermediate (0.5–1.5: intermediate binders (++)) | MHC I Stabilization Assay, fluorescence index class, H-2D^b (H-2D^b; [1]): ++ (0.5–1.5 ++)

RLGAVQNEVTLTHPITKY [NS3_601-618]
H-2D^b binder class (weak, intermediate, strong) by stabilization of MHC class I on RMA-S cells (H-2D^b; synthetic long peptides): weak (0.2–0.5: weak binders (+)) | MHC I Stabilization Assay, fluorescence index class, H-2D^b (H-2D^b; [1]): + (Fluorescence index of H-2D^b: 0.2–0.5 +)

SIINFEKL [OVA257-264]
MHC I Stabilization Assay, fluorescence index class, H-2D^b (H-2D^b; short synthetic peptides, serially diluted (Figure 2a)): ++ (0.5–1.5 ++) | Fluorescence index (FI), stabilization of H-2K^b (H-2K^b; short peptides at 100 μM, strong binders): > 8 | plateau of stabilization of H-2K^b molecules (H-2K^b; short peptides, up to high peptide concentration (100 μM)): not detectable | MHC I Stabilization Assay, fluorescence index class, H-2K^b (H-2K^b; short synthetic peptides, serially diluted (Figure 2b)): +++ (>8 +++)

VPAAYAAQGYKVLVL [NS3_214-228]
H-2D^b binder class (weak, intermediate, strong) by stabilization of MHC class I on RMA-S cells (H-2D^b; synthetic long peptides): intermediate (0.5–1.5: intermediate binders (++)) | MHC I Stabilization Assay, fluorescence index class, H-2D^b (H-2D^b; [1]): ++ (0.5–1.5 ++) | H-2K^b binder class (weak, intermediate, strong) by stabilization of MHC class I on RMA-S cells (H-2K^b; synthetic long peptides, 10 μM (Figure 1b), in words): weak (0.2–2: weak binders (+)) | MHC I Stabilization Assay, fluorescence index class, H-2K^b (H-2K^b; [1]): + (Fluorescence index of H-2K^b: 0.2–2 +)
